Measured values taken from DBAASP.
≈ marks a conversion by molar mass, not a printed value. Where “and” joins values, the source holds several entries; their conditions need not be identical. Identical values can stand only once. Blank lines part the entries; values can stand above or below the molecule they belong to.

What was measured:
Assay in all cases: ≥ marks a high value that may be exact or a test limit, other limits are often not marked, values filed in µg/mL are converted to µM
[1] = tested on: Salmonella enterica subsp. enterica serovar Typhimurium ATCC 13311
[2] = tested on: Enterococcus faecalis ATCC 29212
Vibrio cholerae O1 Inaba = tested on: Vibrio cholerae O1 Inaba
[3] = tested on: Shigella sonnei ATCC 11060
[4] = tested on: Pseudomonas aeruginosa ATCC 27853
[5] = tested on: Staphylococcus aureus ATCC 25923
[6] = tested on: Staphylococcus epidermidis ATCC 12228
[7] = tested on: Listeria monocytogenes 10403s
Acinetobacter baumannii = tested on: Acinetobacter baumannii
Escherichia coli O157:H7 = tested on: Escherichia coli O157:H7
[8] = tested on: Bacillus cereus ATCC 11778
[9] = tested on: Escherichia coli ATCC 25922
Escherichia coli TOP 10 = tested on: Escherichia coli TOP 10
[10] = tested on: Candida tropicalis CGMCC 2.1975
Candida albicans = tested on: Candida albicans
[11] = tested on: Candida parapsilosis CGMCC 2.3989
[12] = tested on: Candida albicans CGMCC 2.2086
[13] = tested on: Salmonella enterica subsp. enterica serovar Pullorum CVCC 533
[14] = tested on: Salmonella enterica subsp. enterica serovar Pullorum CVCC 1809
[15] = tested on: Salmonella enterica subsp. enterica serovar Typhimurium ATCC 14028
Aeromonas veronii CL0901 = tested on: Aeromonas veronii CL0901
[16] = tested on: Staphylococcus aureus ATCC 546
[17] = tested on: Staphylococcus hyicus NCTC 10350
[18] = tested on: Escherichia coli CVCC 25922
[19] = tested on: Salmonella enterica subsp. enterica serovar Enteritidis CVCC 3377
[20] = tested on: Candida albicans CMCC 98001
[21] = tested on: Salmonella enterica subsp. enterica serovar Pullorum CVCC 1789
Staphylococcus hyicus = tested on: Staphylococcus hyicus
[22] = tested on: Aeromonas veronii ATCC 35624
[23] = tested on: Escherichia coli CVCC 195
[24] = tested on: Aeromonas veronii X-1-06909
[25] = tested on: Escherichia coli CVCC O157
[26] = tested on: Staphylococcus aureus ATCC 43300
[27] = tested on: Pseudomonas aeruginosa CICC 21630
[28] = tested on: Escherichia coli CVCC 1515
[29] = tested on: Staphylococcus aureus 209P
Escherichia coli C600 = tested on: Escherichia coli C600
[30] = tested on: Pseudomonas aeruginosa PAO1
[31] = tested on: Staphylococcus aureus SH1000
[32] = tested on: Enterococcus faecium ATCC 700221
[33] = tested on: Acinetobacter baumannii ATCC BAA-747
[34] = tested on: Klebsiella pneumoniae ATCC 700603
[35] = tested on: Salmonella enterica ATCC 6539
[36] = tested on: Mannheimia haemolytica 82-25

SMILES: CC(C)[C@@H]1NC(=O)CNC(=O)[C@H](CC(N)=O)NC(=O)[C@H](CCCN=C(N)N)NC(=O)[C@H](Cc2ccc(O)cc2)NC(=O)[C@H](C(C)C)NC(=O)[C@@H](NC(=O)[C@@H](NC(=O)[C@H](CC(N)=O)NC(=O)[C@H](Cc2c[nH]c3ccccc23)NC(=O)[C@H](C)NC(=O)[C@H](Cc2ccccc2)NC(=O)CN)C(C)C)CSSC[C@@H](C(=O)N[C@@H](Cc2cnc[nH]2)C(=O)N[C@@H](CCCN=C(N)N)C(=O)N2CCC[C@H]2C(=O)N[C@@H](C)C(=O)N[C@@H](CC(N)=O)C(N)=O)NC(=O)[C@H](C(C)C)NC(=O)[C@H](CCCN=C(N)N)NC1=O [GFAWNVCVYRNGVRVCHRPAN]
MIC [13]: 13.2 µM (≈ 32 µg/mL) | MIC [14]: 3.31 µM (≈ 7.99 µg/mL) | MIC [15]: 6.62 µM (≈ 16 µg/mL) | MIC (Aeromonas veronii CL0901): 26.5 µM (≈ 63.9 µg/mL) | MIC [16]: 26.5 µM (≈ 63.9 µg/mL) | MIC [17]: ≥ 52.9 µM | MIC [18]: 3.31 µM (≈ 7.99 µg/mL) | MIC [19]: 0.827 µM (≈ 2 µg/mL) | MIC [20]: ≥ 52.9 µM | MIC [21]: 6.62 µM (≈ 16 µg/mL) | MIC (Staphylococcus hyicus): 26.5 µM (≈ 63.9 µg/mL) | MIC [5]: > 26.5 µM | MIC [22]: 26.5 µM (≈ 63.9 µg/mL) | MIC [23]: 3.31 µM (≈ 7.99 µg/mL) | MIC [24]: 26.5 µM (≈ 63.9 µg/mL) | MIC [25]: 3.31 µM (≈ 7.99 µg/mL) | MIC [26]: > 26.5 µM | MIC [27]: 26.5 µM (≈ 63.9 µg/mL) | MIC [28]: 1.65 µM (≈ 4 µg/mL)

SMILES: CC[C@H](C)[C@@H]1NC(=O)CNC(=O)[C@H](CCCN=C(N)N)NC(=O)[C@H](Cc2ccc(O)cc2)NC(=O)[C@@H]2CSSC[C@H](NC1=O)C(=O)N[C@@H](Cc1ccc(O)cc1)C(=O)N[C@@H](CCCN=C(N)N)C(=O)N[C@@H](CCCN=C(N)N)C(=O)N[C@H](C(=O)N[C@@H](CCCN=C(N)N)C(=O)O)CSSC[C@H](NC(=O)[C@H](Cc1c[nH]c3ccccc13)NC(=O)[C@@H](N)CCCCN)C(=O)N[C@@H](Cc1ccccc1)C(=O)N[C@@H](CCCN=C(N)N)C(=O)N[C@@H](CO)C(=O)N2 [KWCFRSCYRGICYRRCR]
MIC [29]: 6.25 µM (≈ 14.1 µg/mL) | MIC (Escherichia coli C600): 1.56 µM (≈ 3.51 µg/mL) | MIC [30]: 12.5 µM (≈ 28.2 µg/mL)

SMILES: CC[C@H](C)[C@H](NC(=O)[C@H](CC(=O)O)NC(=O)[C@H](CC(C)C)NC(=O)[C@H](CC(C)C)NC(=O)[C@@H](N)CCCCN)C(=O)N[C@H](C(=O)N[C@@H](CCCCN)C(=O)N[C@@H](CCCCN)C(=O)N[C@H](C(=O)N[C@H](C(=O)NCC(=O)N[C@@H](C)C(=O)N[C@@H](CC(C)C)C(=O)NCC(N)=O)C(C)C)C(C)C)C(C)C [KLLDIVKKVVGALG]
MIC [31]: ≥ 100 µM

SMILES: NCC(=O)NCC(=O)N[C@@H](Cc1cnc[nH]1)C(=O)O [GGH]
MIC [32]: ≥ 476 µM | MIC [33]: ≥ 476 µM | MIC [4]: > 476 µM | MIC [34]: > 476 µM | MIC [26]: > 476 µM | MIC [35]: ≥ 476 µM | MIC [9]: > 476 µM

SMILES: NCCCC[C@H](NC(=O)[C@H](CC(=O)O)NC(=O)[C@H](CC(=O)O)NC(=O)[C@H](CC(=O)O)NC(=O)[C@@H](N)CC(=O)O)C(=O)O [DDDDK]
MIC [36]: ≥ 90 µM

Now from value to molecule, other results behind:

MIC [1]: 0.905 µM (≈ 1.95 µg/mL) | MIC [2]: 7.26 µM (≈ 15.6 µg/mL) | MIC [3]: 1.82 µM (≈ 3.91 µg/mL) | MIC [4]: 3.63 µM (≈ 7.81 µg/mL) | MIC [5]: 3.63 µM (≈ 7.81 µg/mL) | MIC [6]: 1.82 µM (≈ 3.91 µg/mL) | MIC [7]: 1.82 µM (≈ 3.91 µg/mL) | MIC (Acinetobacter baumannii): 3.63 µM (≈ 7.81 µg/mL) | MIC (Escherichia coli O157:H7): 29 µM (≈ 62.5 µg/mL) | MIC [8]: 1.82 µM (≈ 3.91 µg/mL) | MIC [9]: 3.63 µM (≈ 7.81 µg/mL)
SMILES: CC[C@H](C)[C@H](NC(=O)[C@H](CCCN=C(N)N)NC(=O)[C@H](CCCCN)NC(=O)[C@H](C)NC(=O)[C@@H](NC(=O)[C@@H](N)CCCCN)[C@@H](C)CC)C(=O)N[C@@H](Cc1c[nH]c2ccccc12)C(=O)N[C@@H](CCCCN)C(=O)N[C@H](C(=O)N[C@@H](CC(C)C)C(=O)N[C@@H](CCCN=C(N)N)C(=O)N[C@@H](CCCN=C(N)N)C(=O)N[C@@H](CCCN=C(N)N)C(=O)N[C@@H](CC(C)C)C(=O)N[C@@H](Cc1ccccc1)C(=O)N[C@@H](CCCN=C(N)N)C(N)=O)[C@@H](C)CC [KIAKRIWKILRRRLFR]
MIC (Vibrio cholerae O1 Inaba): 1.82 µM (≈ 3.91 µg/mL)

MIC (Escherichia coli TOP 10): 12 µM (≈ 25 µg/mL)
SMILES: CC[C@H](C)[C@H](NC(=O)[C@H](C)NC(=O)[C@H](CS)NC(=O)[C@H](CC(C)C)NC(=O)[C@@H](NC(=O)[C@H](C)NC(=O)[C@H](CCCN=C(N)N)NC(=O)[C@@H](NC(=O)[C@@H](NC(=O)[C@H](CCCCN)NC(=O)[C@@H](NC(=O)[C@@H](NC(=O)[C@@H]1CCCN1C(=O)CNC(=O)[C@H](CC(C)C)NC(=O)[C@@H](N)Cc1ccccc1)[C@@H](C)CC)[C@@H](C)CC)[C@@H](C)O)C(C)C)C(C)C)C(=O)N[C@@H](CCCCN)C(=O)N[C@@H](CCCCN)C(=O)N[C@@H](CC(C)C)C(N)=O [FLGPIIKTVRAVLCAIKKL]

MIC [10]: 2 µM (≈ 4.73 µg/mL) | MIC (Candida albicans): 2.83 µM and 4 µM | MIC [11]: 4 µM (≈ 9.45 µg/mL) | MIC [12]: 4 µM (≈ 9.45 µg/mL)
SMILES: CC[C@H](C)[C@H](NC(=O)CNC(=O)[C@H](CCCN=C(N)N)NC(=O)[C@H](Cc1c[nH]c2ccccc12)NC(=O)[C@H](CC(C)C)NC(=O)[C@H](CC(C)C)NC(=O)[C@H](Cc1c[nH]c2ccccc12)NC(=O)[C@H](CCCN=C(N)N)NC(=O)CNC(=O)[C@@H](NC(=O)[C@@H](N)CCCN=C(N)N)[C@@H](C)CC)C(=O)N[C@@H](CCCN=C(N)N)C(=O)N[C@@H](CCCN=C(N)N)C(=O)N[C@H](C(=O)NCC(=O)N[C@@H](CCCN=C(N)N)C(=O)N[C@@H](Cc1c[nH]c2ccccc12)C(=O)N[C@@H](CC(C)C)C(N)=O)[C@@H](C)CC [RIGRWLLWRGIRRIGRWL]
